The source of these data is ChEMBL document CHEMBL5291721, “A preclinical secondary pharmacology resource illuminates target-adverse drug reaction associations of marketed drugs” (Nat Commun, 2023).

For orientation: AC50 means the concentration giving half of the maximal activity seen. High values mean activity only at high concentration, low ones activity at low concentration.

The target in one experiment is D(1A) dopamine receptor (Homo sapiens, UniProt P21728).
Experiment [1] has as its target 5-hydroxytryptamine receptor 6 (Homo sapiens, UniProt P50406).
Experiment [2] addresses T1, Alpha-1A adrenergic receptor (Homo sapiens, UniProt P35348).
T1 sequence (P35348 whole entry): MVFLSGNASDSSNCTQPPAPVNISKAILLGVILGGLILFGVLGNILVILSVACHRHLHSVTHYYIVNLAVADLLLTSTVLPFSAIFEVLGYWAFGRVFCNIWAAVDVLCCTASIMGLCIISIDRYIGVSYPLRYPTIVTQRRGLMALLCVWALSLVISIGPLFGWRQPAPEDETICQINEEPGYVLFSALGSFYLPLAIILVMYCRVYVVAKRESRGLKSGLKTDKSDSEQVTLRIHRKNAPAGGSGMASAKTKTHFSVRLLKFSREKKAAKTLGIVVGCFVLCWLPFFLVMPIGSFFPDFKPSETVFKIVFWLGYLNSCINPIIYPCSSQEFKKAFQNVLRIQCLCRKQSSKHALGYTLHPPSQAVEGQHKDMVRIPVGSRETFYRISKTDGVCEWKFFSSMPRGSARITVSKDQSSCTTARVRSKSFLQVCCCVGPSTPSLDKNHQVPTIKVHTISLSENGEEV

A further experiment addresses Substance-P receptor (Homo sapiens, UniProt P25103).
Experiment [3] addresses T2, Muscarinic acetylcholine receptor M2 (Homo sapiens, UniProt P08172).
T2 sequence (P08172 whole entry): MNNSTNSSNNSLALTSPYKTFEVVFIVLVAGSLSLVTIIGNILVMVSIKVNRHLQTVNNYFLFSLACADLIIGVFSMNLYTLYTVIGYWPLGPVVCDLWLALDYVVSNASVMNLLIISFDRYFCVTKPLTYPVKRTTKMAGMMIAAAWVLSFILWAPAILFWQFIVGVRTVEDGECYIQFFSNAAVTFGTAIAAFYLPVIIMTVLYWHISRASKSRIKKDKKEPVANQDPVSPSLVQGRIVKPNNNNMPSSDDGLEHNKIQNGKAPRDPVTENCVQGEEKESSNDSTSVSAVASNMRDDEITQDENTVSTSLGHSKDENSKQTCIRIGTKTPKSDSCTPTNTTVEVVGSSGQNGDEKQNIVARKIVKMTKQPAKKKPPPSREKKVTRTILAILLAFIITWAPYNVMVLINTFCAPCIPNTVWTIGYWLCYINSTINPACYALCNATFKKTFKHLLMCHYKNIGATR

Another experiment concerns the target T3, B1 bradykinin receptor (Homo sapiens, UniProt P46663).
T3 sequence (P46663 whole entry): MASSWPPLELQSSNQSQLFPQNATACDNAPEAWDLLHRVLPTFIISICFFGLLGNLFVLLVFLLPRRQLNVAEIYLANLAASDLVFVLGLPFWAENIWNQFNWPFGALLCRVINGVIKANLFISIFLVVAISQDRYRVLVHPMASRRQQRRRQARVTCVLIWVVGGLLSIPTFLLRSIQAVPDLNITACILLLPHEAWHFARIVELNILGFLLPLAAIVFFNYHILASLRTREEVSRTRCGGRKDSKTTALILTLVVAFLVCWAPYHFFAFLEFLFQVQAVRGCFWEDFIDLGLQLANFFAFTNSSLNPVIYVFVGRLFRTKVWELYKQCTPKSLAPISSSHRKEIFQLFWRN

The next experiment has as its target Acetylcholinesterase (Homo sapiens, UniProt P22303). It is filed as functional.
Experiment [4] deals with 5-hydroxytryptamine receptor 7 (Homo sapiens, UniProt P34969).
The target of experiment [5] is Gamma-aminobutyric acid type B receptor subunit 1 (Homo sapiens, UniProt Q9UBS5).
Note: assay procedure not described here.

Sequence of D(1A) dopamine receptor (P21728 whole entry): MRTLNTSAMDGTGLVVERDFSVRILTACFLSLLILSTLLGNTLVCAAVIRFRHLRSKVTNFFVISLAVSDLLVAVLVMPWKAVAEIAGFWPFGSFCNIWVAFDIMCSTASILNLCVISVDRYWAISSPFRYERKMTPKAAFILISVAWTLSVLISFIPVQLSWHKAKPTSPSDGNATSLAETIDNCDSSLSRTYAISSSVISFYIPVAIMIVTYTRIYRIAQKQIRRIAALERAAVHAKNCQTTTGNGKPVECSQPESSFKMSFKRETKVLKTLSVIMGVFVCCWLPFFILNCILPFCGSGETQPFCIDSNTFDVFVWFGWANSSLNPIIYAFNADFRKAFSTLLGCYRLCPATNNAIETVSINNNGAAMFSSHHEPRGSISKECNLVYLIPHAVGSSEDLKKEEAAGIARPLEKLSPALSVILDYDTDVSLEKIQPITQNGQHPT
Sequence of Substance-P receptor (P25103 whole entry): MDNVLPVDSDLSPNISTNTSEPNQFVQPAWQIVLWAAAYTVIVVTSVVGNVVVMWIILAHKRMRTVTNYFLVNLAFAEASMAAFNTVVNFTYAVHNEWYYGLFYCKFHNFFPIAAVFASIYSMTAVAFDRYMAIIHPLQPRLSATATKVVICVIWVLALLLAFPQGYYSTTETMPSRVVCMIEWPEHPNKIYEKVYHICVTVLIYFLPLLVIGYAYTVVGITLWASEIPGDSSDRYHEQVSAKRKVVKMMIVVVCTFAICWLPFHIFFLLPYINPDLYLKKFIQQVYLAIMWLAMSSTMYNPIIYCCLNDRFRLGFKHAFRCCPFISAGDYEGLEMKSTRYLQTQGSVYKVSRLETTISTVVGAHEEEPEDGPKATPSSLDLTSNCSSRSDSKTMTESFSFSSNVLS
Sequence of 5-hydroxytryptamine receptor 7 (P34969 whole entry): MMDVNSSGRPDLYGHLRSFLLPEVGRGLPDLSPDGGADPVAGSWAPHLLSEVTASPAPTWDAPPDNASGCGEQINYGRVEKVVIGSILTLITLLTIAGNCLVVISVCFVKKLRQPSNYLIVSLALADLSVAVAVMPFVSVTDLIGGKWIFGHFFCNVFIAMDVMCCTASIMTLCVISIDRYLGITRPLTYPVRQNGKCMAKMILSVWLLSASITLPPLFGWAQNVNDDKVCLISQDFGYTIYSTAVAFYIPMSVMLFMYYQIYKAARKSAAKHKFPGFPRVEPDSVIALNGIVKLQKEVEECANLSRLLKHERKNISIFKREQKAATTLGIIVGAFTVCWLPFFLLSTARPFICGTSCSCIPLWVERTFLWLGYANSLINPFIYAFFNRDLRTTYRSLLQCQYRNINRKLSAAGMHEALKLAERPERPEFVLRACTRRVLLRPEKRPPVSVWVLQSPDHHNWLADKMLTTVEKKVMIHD
Sequence of 5-hydroxytryptamine receptor 6 (P50406 whole entry): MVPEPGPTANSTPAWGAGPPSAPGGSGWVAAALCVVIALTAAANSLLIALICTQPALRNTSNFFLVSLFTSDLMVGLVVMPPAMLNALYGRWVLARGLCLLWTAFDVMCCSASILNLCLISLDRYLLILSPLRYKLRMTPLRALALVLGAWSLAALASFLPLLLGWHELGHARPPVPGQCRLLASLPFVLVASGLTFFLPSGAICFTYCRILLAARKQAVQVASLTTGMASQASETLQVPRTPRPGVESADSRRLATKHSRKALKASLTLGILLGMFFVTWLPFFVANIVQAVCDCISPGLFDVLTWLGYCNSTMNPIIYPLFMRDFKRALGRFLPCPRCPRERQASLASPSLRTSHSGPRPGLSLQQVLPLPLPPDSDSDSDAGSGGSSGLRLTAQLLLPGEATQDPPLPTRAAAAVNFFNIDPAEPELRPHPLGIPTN
Sequence of Acetylcholinesterase (P22303 whole entry): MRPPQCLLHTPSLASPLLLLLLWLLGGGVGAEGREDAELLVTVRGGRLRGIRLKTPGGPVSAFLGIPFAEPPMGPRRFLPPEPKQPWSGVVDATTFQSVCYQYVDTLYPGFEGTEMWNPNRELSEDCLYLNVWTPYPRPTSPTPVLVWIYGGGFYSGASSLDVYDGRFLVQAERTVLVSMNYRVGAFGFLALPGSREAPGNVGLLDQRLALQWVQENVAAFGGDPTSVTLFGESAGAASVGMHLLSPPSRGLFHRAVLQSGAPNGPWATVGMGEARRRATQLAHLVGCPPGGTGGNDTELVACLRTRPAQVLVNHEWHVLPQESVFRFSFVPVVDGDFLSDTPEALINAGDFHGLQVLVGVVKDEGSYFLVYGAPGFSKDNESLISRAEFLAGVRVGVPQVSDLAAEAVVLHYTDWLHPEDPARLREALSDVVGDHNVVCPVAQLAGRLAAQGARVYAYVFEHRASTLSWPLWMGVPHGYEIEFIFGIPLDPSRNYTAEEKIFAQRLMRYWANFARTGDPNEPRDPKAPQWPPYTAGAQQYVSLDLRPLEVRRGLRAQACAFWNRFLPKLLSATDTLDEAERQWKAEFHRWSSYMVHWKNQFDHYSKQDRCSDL
Sequence of Gamma-aminobutyric acid type B receptor subunit 1 (Q9UBS5 whole entry): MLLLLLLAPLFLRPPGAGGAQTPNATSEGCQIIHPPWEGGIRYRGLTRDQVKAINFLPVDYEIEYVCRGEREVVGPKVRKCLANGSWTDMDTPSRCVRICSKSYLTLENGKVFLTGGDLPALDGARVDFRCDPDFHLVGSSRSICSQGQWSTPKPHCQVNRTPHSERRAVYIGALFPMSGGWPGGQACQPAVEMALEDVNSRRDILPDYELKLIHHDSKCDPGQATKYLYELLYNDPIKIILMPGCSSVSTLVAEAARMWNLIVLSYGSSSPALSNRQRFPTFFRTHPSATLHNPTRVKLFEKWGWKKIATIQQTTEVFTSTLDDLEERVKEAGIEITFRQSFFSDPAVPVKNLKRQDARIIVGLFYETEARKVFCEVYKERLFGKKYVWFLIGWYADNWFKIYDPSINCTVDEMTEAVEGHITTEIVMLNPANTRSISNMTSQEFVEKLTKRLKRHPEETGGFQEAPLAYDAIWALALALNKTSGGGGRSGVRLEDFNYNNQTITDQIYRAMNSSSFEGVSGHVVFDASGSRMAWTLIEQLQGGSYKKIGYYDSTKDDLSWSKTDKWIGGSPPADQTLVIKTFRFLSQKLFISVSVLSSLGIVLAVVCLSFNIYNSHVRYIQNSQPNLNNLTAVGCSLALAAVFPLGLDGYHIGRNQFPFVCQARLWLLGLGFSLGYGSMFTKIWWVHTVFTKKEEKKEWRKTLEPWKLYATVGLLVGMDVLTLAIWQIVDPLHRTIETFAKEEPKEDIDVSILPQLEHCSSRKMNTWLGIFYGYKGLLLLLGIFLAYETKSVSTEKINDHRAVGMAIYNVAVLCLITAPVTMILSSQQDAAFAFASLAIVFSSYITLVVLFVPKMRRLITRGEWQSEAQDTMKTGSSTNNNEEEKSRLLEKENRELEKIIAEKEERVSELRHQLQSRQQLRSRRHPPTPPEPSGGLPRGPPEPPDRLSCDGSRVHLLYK

Consider `NCC1(CC(=O)O)CCCCC1` [GABAPENTIN], for which the concentration at half-maximal activity (AC50) on D(1A) dopamine receptor was greater than 30 µM; in [1], greater than 10 µM; in [2], greater than 10 µM; on Substance-P receptor, greater than 10 µM; in experiment [3], greater than 30 µM; at B1 bradykinin receptor, greater than 30 µM. Moreover, the concentration at half-maximal activity (AC50) at Acetylcholinesterase was greater than 30 µM; in [4], greater than 10 µM; in [5], greater than 10 µM.
